In ChEMBL document CHEMBL5316308, “BET-HDAC Dual Inhibitors for Combinational Treatment of Breast Cancer and Concurrent Candidiasis” (J Med Chem, 2023):
Converted amounts (≈) assume the structure as drawn. The source made the active and inactive calls. No cut-off for these calls is given here.

How the values were obtained:
Candida albicans [1] = assay: microbe, parasite or virus in culture; type: functional; conditions: 0304103, time 48 hrs
Description: Synergistic antifungal activity against azole-resistant Candida albicans 0304103 assessed as fungal growth inhibition measured after 48 hrs by CLSI based micro-dilution broth method

Cryptococcus neoformans [2] = assay: Antifungal activity against Cryptococcus neoformans H99 assessed as fungal growth inhibition measured after 48 hrs by CLSI based micro-dilution broth method; type: functional
Candida albicans [3] = assay: microbe, parasite or virus in culture; type: functional; conditions: 0304103, time 48 hrs; remark: listed apart in the source
Description: Synergistic antifungal activity against azole-resistant Candida albicans 0304103 assessed as fungal growth inhibition measured after 48 hrs in presence of FLC by CLSI based micro-dilution broth method

K562 [4] = assay: Antiproliferative activity against human K562 cells assessed as cell growth inhibition incubated for 24 hrs by CCK-8 assay; type: functional, cell-based; conditions: K562, 24 h
HL-60 [5] = assay: Antiproliferative activity against human HL-60 cells assessed as cell growth inhibition incubated for 24 hrs by CCK-8 assay; type: functional, cell-based; conditions: HL-60, 24 h
Histone deacetylase 1 = Histone deacetylase 1 (Homo sapiens, UniProt Q13547); assay: Inhibition of full-length recombinant human HDAC1 (1 to 482 residues) expressed in baculovirus infected insect cells using Ac-Leu-Gly-Lys(Ac)-AMC as substrate incubated for 30 mins by fluorescence based assay; design: species or system Insect cell
Candida albicans [6] = type: functional, 0304103; conditions: time 48 hrs
Description: Synergistic antifungal activity against azole-resistant Candida albicans 0304103 assessed as fractional inhibitory concentration index measured after 48 hrs in presence of FLC by CLSI based micro-dilution broth method

[7] = target: Bromodomain-containing protein 4 (Homo sapiens, UniProt O60885); assay: Inhibition of recombinant BRD4 (unknown origin) incubated for 120 mins by TR-FRET assay relative to control; design: concentration or dose not given beside the values
MDA-MB-231 [8] = assay: Antiproliferative activity against human MDA-MB-231 cells assessed as cell growth inhibition incubated for 24 hrs by CCK-8 assay; type: functional, cell-based; conditions: MDA-MB-231, 24 h
HEL [9] = assay: Antiproliferative activity against human HEL cells assessed as cell growth inhibition incubated for 24 hrs by CCK-8 assay; type: functional, cell-based
MDA-MB-231 [10] = assay: Induction of apoptosis in human MDA-MB-231 cells assessed as late apoptotic cells at 10 uM incubated for 48 hrs by Annexin V-FITC/PI staining based flow cytometry relative to control; type: functional
MDA-MB-231 [11] = assay: Induction of apoptosis in human MDA-MB-231 cells assessed as late apoptotic cells at 2.5 uM incubated for 48 hrs by Annexin V-FITC/PI staining based flow cytometry relative to control; type: functional
MDA-MB-231 [12] = assay: Induction of apoptosis in human MDA-MB-231 cells assessed as late apoptotic cells at 5 uM incubated for 48 hrs by Annexin V-FITC/PI staining based flow cytometry relative to control; type: functional
Candida albicans [13] = assay: Synergistic antifungal activity against Candida albicans 0304103 infected in ICR mouse assessed as decrease in kidney fungal load at 20 mg/kg, ip for 5 consecutive days; type: functional, organism-based; conditions: time 5.0 day
Candida albicans [14] = assay: Synergistic antifungal activity against azole-resistant Candida albicans 0304103 assessed as fungal growth inhibition measured after 48 hrs in presence of FLC and SAHA by CLSI based micro-dilution broth method; type: functional
MDA-MB-231 [15] = assay: Antiproliferative activity against human MDA-MB-231 cells assessed as cell growth inhibition incubated for 24 hrs in presence of SAHA by CCK-8 assay; type: functional, cell-based; conditions: MDA-MB-231, 24 h
MDA-MB-231 [16] = assay: Antitumor activity against human MDA-MB-231 cells xenografted in Balb/c nude mouse assessed as tumor growth inhibition at 10 mg/kg, ip qd for 21 consecutive days relative to control; type: functional; conditions: MDA-MB-231, 480 h, time 20 day, read-out: TGI
Candida albicans [17] = assay: Synergistic antifungal activity against azole-resistant Candida albicans 0304103 assessed as fungal growth inhibition at 32 ug/ml measured upto 24 hrs in presence of FLC by absorbance based assay; type: functional, organism-based; conditions: dose 32.0 µg/ml
K562 [18] = assay: Antiproliferative activity against human K562 cells assessed as cell growth inhibition incubated for 24 hrs in presence of SAHA by CCK-8 assay; type: functional, cell-based; conditions: K562, 24 h
HEL [19] = assay: Antiproliferative activity against human HEL cells assessed as cell growth inhibition incubated for 24 hrs in presence of SAHA by CCK-8 assay; type: functional, cell-based
Candida albicans [20] = assay: Synergistic antifungal activity against azole-resistant Candida albicans 0304103 assessed as fractional inhibitory concentration index measured after 48 hrs in presence of FLC and SAHA by CLSI based micro-dilution broth method; type: functional
Cryptococcus neoformans [21] = assay: Antifungal activity against Cryptococcus neoformans H99 assessed as fungal growth inhibition measured after 48 hrs in presence of SAHA by CLSI based micro-dilution broth method; type: functional
HL-60 [22] = assay: Antiproliferative activity against human HL-60 cells assessed as cell growth inhibition incubated for 24 hrs in presence of SAHA by CCK-8 assay; type: functional, cell-based; conditions: HL-60, 24 h
Candida albicans [23] = assay: Synergistic antifungal activity against azole-resistant Candida albicans 0304103 assessed as fungal growth inhibition measured after 48 hrs in presence of SAHA by CLSI based micro-dilution broth method; type: functional
Candida albicans [24] = assay: Antifungal activity FLC-resistant Candida albicans 0304103 assessed as hyphal formation at 32 ug/ml incubated for 3 hrs by inverse fluorescent microscopy; type: functional, organism-based; conditions: dose 32.0 µg/ml
Candida albicans [25] = assay: Antifungal activity against azole-resistant Candida albicans 0304103 assessed as fungal growth inhibition at 1 to 4 ug/ml measured upto 24 hrs by absorbance based assay; type: functional, organism-based; conditions: dose 1-4 µg/ml

Histone deacetylase 1, sequence (Q13547 whole entry, the tested form may be a part): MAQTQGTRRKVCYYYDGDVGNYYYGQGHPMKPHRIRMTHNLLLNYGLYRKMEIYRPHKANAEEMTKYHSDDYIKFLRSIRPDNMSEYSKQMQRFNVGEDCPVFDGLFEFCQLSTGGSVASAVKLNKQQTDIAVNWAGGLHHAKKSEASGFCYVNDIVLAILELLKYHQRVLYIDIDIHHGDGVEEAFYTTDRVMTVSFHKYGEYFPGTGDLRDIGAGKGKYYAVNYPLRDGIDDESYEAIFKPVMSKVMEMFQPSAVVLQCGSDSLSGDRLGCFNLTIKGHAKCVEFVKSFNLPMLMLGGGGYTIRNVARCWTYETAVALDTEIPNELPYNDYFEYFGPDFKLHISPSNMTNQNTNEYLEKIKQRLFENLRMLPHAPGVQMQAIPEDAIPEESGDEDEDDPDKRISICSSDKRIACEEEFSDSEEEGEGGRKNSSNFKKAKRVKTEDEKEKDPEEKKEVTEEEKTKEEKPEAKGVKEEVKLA

| Structure (SMILES) | MIC80 (Candida albicans [1]) [µg/mL] | MIC80 (Cryptococcus neoformans [2]) [µg/mL] | MIC80 (Candida albicans [3]) [µg/mL] | IC50 (K562 [4]) [µM] | IC50 (HL-60 [5]) [µM] | IC50 (Histone deacetylase 1) [µM] | fractional inhibitory concentration index (FICI) (Candida albicans [6]) | inhibition [7] [%] | IC50 (MDA-MB-231 [8]) [µM] | IC50 (HEL [9]) [µM] | further results |
| --- | --- | --- | --- | --- | --- | --- | --- | --- | --- | --- | --- |
| COc1cc2c(cc1-c1c(C)noc1C)[nH]c1ncnc(NCCCCC(=O)NO)c12 | > 64 | > 64 | > 64 | > 50 | > 50 | > 2 | >2 | 11.1 | > 50 | > 50 | – |
| COc1cc2c(cc1-c1c(C)noc1C)[nH]c1nc(C)nc(NCCCCCC(=O)Nc3ccc(/C=C/C(=O)NO)cc3)c12 | > 64 | 4 (≈ 6.69 µM) | 1 (≈ 1.67 µM) | 6 | 3.1 | 1.1 | 0.078 | 58.3 | 16 | > 50 | – |
| COc1cc2c(cc1-c1c(C)noc1C)[nH]c1ncnc(Nc3ccc(/C=C/C(=O)NO)cc3)c12 | > 64 | 16 (≈ 34 µM) | 8 (≈ 17 µM) | 11 | > 50 | > 2 | 0.25 | 67.5 | 6.3 | > 50 | – |
| COc1cc2c(cc1-c1c(C)noc1C)[nH]c1nc(C)nc(NCc3ccc(C(=O)NO)cc3)c12 | > 64 | 64 (≈ 135 µM) | 2 (≈ 4.23 µM) | 1.8 | 2.4 | 0.448 | 0.062 | 97.5 | 8.3 | 2.7 | – |
| COc1cc2c(cc1-c1c(C)noc1C)[nH]c1ncnc(NCCCCCC(=O)NO)c12 | > 64 | 32 (≈ 73 µM) | 0.5 (≈ 1.14 µM) | 17 | > 50 | 0.203 | 0.5 | 64.7 | > 50 | 13 | – |
| O=C(CCCCCCC(=O)Nc1ccccc1)NO [VORINOSTAT] | – | – | – | – | – | – | – | – | – | – | Activity (MDA-MB-231 [10]): 27.19%; Activity (MDA-MB-231 [11]): 16.91%; Activity (MDA-MB-231 [12]): 22.96%; Activity (Candida albicans [13]): inactive |
| COc1cc2c(cc1-c1c(C)noc1C)[nH]c1nc(C)nc(Nc3cc(C4CC4)nn3C)c12 | > 64 | 32 (≈ 72.2 µM) | 16 (≈ 36.1 µM) | 2.3 | 1.5 | – | 1.2 | – | 3.8 | 0.6 | Activity (MDA-MB-231 [10]): 16.93%; Activity (MDA-MB-231 [11]): 8.25%; MIC80 (Candida albicans [14]): 1 µg/mL; IC50 (MDA-MB-231 [15]): 1.6 µM; inhibition in vivo at 10 mg/kg (MDA-MB-231 [16]): 22%; Activity (MDA-MB-231 [12]): 9.99%; Activity (Candida albicans [17]): inactive; IC50 (K562 [18]): 0.00021 µM; IC50 (HEL [19]): 0.4 µM; Activity (Candida albicans [13]): inactive; fractional inhibitory concentration index (FICI) (Candida albicans [20]): 0.26; MIC80 (Cryptococcus neoformans [21]): 64 µg/mL; IC50 (HL-60 [22]): 1.4 µM; MIC80 (Candida albicans [23]): > 64 µg/mL |
| COc1cc2c(cc1-c1c(C)noc1C)[nH]c1ncnc(NCCCCCC(=O)Nc3ccc(/C=C/C(=O)NO)cc3)c12 | > 64 | 2 (≈ 3.43 µM) | 1 (≈ 1.71 µM) | 8.1 | 3.8 | 0.252 | 0.26 | 56.1 | 14 | 8.9 | – |
| COc1cc2c(cc1-c1c(C)noc1C)[nH]c1nc(C)nc(Nc3ccc(/C=C/C(=O)NO)cc3)c12 | > 64 | 16 (≈ 33 µM) | 0.5 (≈ 1.03 µM) | > 50 | > 50 | 1.2 | 0.13 | 55.2 | 11 | > 50 | – |
| COc1cc2c(cc1-c1c(C)noc1C)[nH]c1ncnc(Nc3ccc(C(=O)NO)cc3)c12 | 64 (≈ 144 µM) | 64 (≈ 144 µM) | 8 (≈ 18 µM) | > 50 | 6.7 | 0.974 | 0.25 | 53.4 | 19 | > 50 | – |
| OC(Cn1cncn1)(Cn1cncn1)c1ccc(F)cc1F | – | – | – | – | – | – | – | – | – | – | Activity (Candida albicans [24]): Active; Activity (Candida albicans [25]): inactive |
| COc1cc2c(cc1-c1c(C)noc1C)[nH]c1nc(C)nc(NCCCCCC(=O)NO)c12 | > 64 | 32 (≈ 70.7 µM) | 2 (≈ 4.42 µM) | 17 | 7.9 | 0.124 | 0.16 | 90.8 | > 50 | 7.1 | – |
| COc1cc2c(cc1-c1c(C)noc1C)[nH]c1nc(C)nc(Nc3cccc(C(=O)NO)c3)c12 | > 64 | > 64 | > 64 | 3.8 | > 50 | > 2 | >2 | 14.8 | 9.8 | > 50 | – |
| COc1cc2c(cc1-c1c(C)noc1C)[nH]c1nc(C)nc(NCCCCCC(=O)Nc3ccc(C(=O)NO)cc3)c12 | > 64 | 4 (≈ 7 µM) | 1 (≈ 1.75 µM) | 18 | 6.5 | 0.086 | 0.047 | 79.7 | 16 | > 50 | – |
| COc1cc2c(cc1-c1c(C)noc1C)[nH]c1ncnc(NCCCCCCCC(=O)NO)c12 | > 64 | 2 (≈ 4.29 µM) | 2 (≈ 4.29 µM) | 8.9 | > 50 | 0.037 | 0.062 | 85.8 | 3.8 | 15 | – |
| COc1cc2c(cc1-c1c(C)noc1C)[nH]c1nc(C)nc(NCCCCCCCC(=O)NO)c12 | > 64 | 64 (≈ 133 µM) | 4 (≈ 8.32 µM) | 3 | > 50 | 0.2 | 0.12 | 86.2 | 7.8 | 3.3 | – |
| COc1cc2c(cc1-c1c(C)noc1C)[nH]c1nc(C)nc(Nc3ccc(C(=O)NO)cc3)c12 | > 64 | > 64 | 0.5 (≈ 1.09 µM) | > 50 | 2.3 | 0.395 | 0.07 | 79.8 | 9.3 | > 50 | – |
